Measurements as given in patent publication US7888338B2, “7-(2-cyclohexylidene-ethylidene)-spiro[4.5]decanes” (K.U. Leuven Research & Development, priority 2004, dated 2011).

Assays:
[1] = target: T1, Human Vitamin D Binding Protein (hDBP) (Homo sapiens, UniProt P02774); assay: Affinity for Human Vitamin D Binding Protein (hDBP), displacement of [3H]1α,25(OH)2D3; details: relative affinity from concentration displacing 50% of [3H]1α,25(OH)2D3, 1α,25(OH)2D3 assigned 100%, 4° C.
T1 sequence (P02774 17-474): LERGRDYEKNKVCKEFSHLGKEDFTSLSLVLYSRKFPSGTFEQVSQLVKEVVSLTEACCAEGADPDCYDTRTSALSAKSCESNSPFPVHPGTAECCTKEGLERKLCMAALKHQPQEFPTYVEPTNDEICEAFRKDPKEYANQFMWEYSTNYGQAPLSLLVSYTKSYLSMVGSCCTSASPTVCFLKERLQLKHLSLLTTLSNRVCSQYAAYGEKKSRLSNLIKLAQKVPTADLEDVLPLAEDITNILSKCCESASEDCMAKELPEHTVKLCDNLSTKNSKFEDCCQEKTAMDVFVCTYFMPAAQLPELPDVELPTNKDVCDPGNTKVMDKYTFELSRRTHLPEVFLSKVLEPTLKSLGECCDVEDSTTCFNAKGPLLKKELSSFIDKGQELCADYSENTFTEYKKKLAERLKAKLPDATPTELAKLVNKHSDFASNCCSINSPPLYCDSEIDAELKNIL
Description: The solution is incubated for 3 hours at 4° C. Final phase separation is obtained by adding 0.5 mL of cold destran-coated charcoal.

Vitamin D Receptor (VDR) = target: T2, Vitamin D Receptor (VDR) (Sus scrofa, UniProt A3RGC1); details: relative affinity from concentration displacing 50% of [3H]1α,25(OH)2D3; 1α,25(OH)2D3 assigned 100%; 4° C., 20 hours
T2 sequence (A3RGC1 1-427): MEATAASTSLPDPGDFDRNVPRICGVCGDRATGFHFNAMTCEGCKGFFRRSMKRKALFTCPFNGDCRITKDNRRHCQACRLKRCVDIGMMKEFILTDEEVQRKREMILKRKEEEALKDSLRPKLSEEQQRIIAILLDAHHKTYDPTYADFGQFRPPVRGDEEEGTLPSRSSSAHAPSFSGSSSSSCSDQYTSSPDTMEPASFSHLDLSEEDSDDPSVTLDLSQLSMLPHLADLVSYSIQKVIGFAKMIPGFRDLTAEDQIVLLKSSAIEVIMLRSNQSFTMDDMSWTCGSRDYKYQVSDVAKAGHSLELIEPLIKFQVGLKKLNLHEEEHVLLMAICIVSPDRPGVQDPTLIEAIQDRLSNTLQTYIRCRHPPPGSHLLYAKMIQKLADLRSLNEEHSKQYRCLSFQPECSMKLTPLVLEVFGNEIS

HL-60 cells = assay: Promyelocytic leukemia cells (HL-60), differentiation markers (NBT reduction assay); format: cell-based; details: relative to control 1α,25(OH)2D3 = 100
Description: Selected compounds of the present invention are evaluated for their effect on cell proliferation. Falcon tissue chambers are seeded with 4×10^4 cells/cm^2 of HL-60 cells using RPMI 1640 medium supplemented with 20% FCS and gentamycin (50 μg/mL) in a final cell volume of 5 mL. The cultures are maintained at 37° C. in an atmosphere of humidified air containing 5% CO2. […] After 4 days, the dishes are shaken to lose adherent cells. The cells are then washed twice in RPMI medium, counted, and then assayed for differentiation markers (NBT reduction assay). Superoxide production is measured as NBT reducing activity as described by Ostrem. V. K et al. Proc Natl Acad Sci USA,. 1987 84: 2610-2614. HL-60 cells at 1×10^6/mL are mixed with an equal volume of freshly prepared solution of phorbol 12-myristate 13-acetate (200 ng/mL) and NBT ([…]) and incubated for 30 minutes at 37° C. The percentage of cells containing black formazan deposits is determined using a hemacytometer.

MCF-7 cells = assay: Measurement of cell proliferation, breast carcinoma cells MCF-7, [3H]thymidine incorporation; format: cell-based; details: cell proliferation ([3H]thymidine incorporation), relative to control 1α,25(OH)2D3 = 100
Description: Selected compounds of the present invention are evaluated for their effect on cell proliferation. Malignant MCF-7 cells are cultured in DMEM nutrient mix F12 (HAM) medium which is supplemented with 10% heat inactivated FCS, glutamine (2 mM), penicillin (100 units/mL) and streptomycin (0.1 mg/mL). The cultures are maintained at 37° C. in an atmosphere of humidified air containing 5% CO2. The MCF-7 cells are seeded at approximately 5×10^3 cells/well in the DMEM modified medium in a 96-well microtiter plate. […] Finally, 1 μCi of [^3H]thymidine is added to each well and the cells are harvested after a further 4 hour incubation period. The cells are harvested with a Parckard Harvester and the cell count measured by a Packard Topcount System.

[2] = In vivo determination of calcium levels (serum calcium, femur calcium); design: species or system NMRI mice; details: for Femur Ca: NMRI mice, IP daily for 7 consecutive days
Text: . Table VII presents the serum and femur calcium levels in mice after intraperitoneal injections after 7 consecutive days.

Row | hDBP binding % [1] [%] | VDR binding % (Vitamin D Receptor (VDR)) [%] | less calcemic than the control ([2]; mouse, in vivo) | estimated serum calcium ([2]; mouse, in vivo, ip) [%] | SMILES | HL-60 (HL-60 cells) | MCF-7 (MCF-7 cells) | Femur Ca ([2]; 0.1 μg/kg/d) [mg] | Femur Ca ([2]; 0.2 μg/kg/d) [mg] | Femur Ca ([2]; 0.4 μg/kg/d) [mg] | estimated serum calcium ([2]; as compared with 1α,25(OH)2D3 (control assigned 100%), mice, IP daily, 7 consecutive days) [%]
1 | 3 | 0.8 | – | – | CC(C)(O)CCC[C@H]1CC[C@]2(CCC/C(=C\C=C3C[C@@H](O)C[C@H](O)C3)C2)C1 [(1R,3R)-5-{2-[(2S,5R)-2-(4-Hydroxy-4-methyl-pentyl)-spiro[4.] [(1R,3R)-5-{2-[(2S,5R)-2-(4-hydroxy-4-methyl-pentyl)-spiro[4.5]dec-(7E)-ylidene]-ethylidene}-cyclohexane-1,3-diol] | 10 | 50 | – | – | – | –
2 | 3 | 0.8 | – | – | CC(C)(O)CCC[C@@H]1CC[C@]2(CCC/C(=C/C=C3C[C@@H](O)C[C@H](O)C3)C2)C1 [(1R,3R)-5-{(Z)-(2R,5R))-2-[2-(4-hydroxy-4-methylpentyl)-spiro[4.5]dec-7-ylidene]-ethylidene}-cyclohexane-1,3-diol] | 8 | 75 | – | – | – | –
3 | 0 | 0.7 | – | – | CC(C)(O)CCC[C@H]1CC[C@@]2(CCC/C(=C\C=C3C[C@@H](O)C[C@H](O)C3)C2)C1 [(1R,3R)-5-{2-[(2S,5S)-2-(4-Hydroxy-4-methyl-pentyl)-spiro[4.5]dec-(7E)-ylidene]-ethylidene}-cyclo-hexane-1,3-diol] | 8 | 20 | – | – | – | –
4 | 3 | 10 | approximately 200 times | 0.5 | CC(C)(O)CCC[C@@H]1CC[C@]2(CCC/C(=C\C=C3C[C@@H](O)C[C@H](O)C3)C2)C1 [(1R,3R)-5-{(E)-(2R,5R))-2-[2-(4-hydroxy-4-methylpentyl)-spiro[4.5]dec-7-ylidene]-ethylidene}-cyclohexane-1,3-diol] | 200 | 450 | – | – | – | –
5 | 0 | 0 | – | – | CC(C)(O)CCC[C@H]1CC[C@]2(CCC/C(=C/C=C3C[C@@H](O)C[C@H](O)C3)C2)C1 [(1R,3R)-5-{(Z)-(2R,5S))-2-[2-(4-hydroxy-4-methylpentyl)-spiro[4.5]dec-7-ylidene]-ethylidene}-cyclohexane-1,3-diol] | <1 | 4 | – | – | – | –
6 | 0 | 0 | – | – | CC(C)(O)CCC[C@H]1CC[C@@]2(CCC/C(=C/C=C3C[C@@H](O)C[C@H](O)C3)C2)C1 [(1R,3R)-5-{2-[(2S,5S)-2-(4-Hydroxy-4-methyl-pentyl)-spiro[4.5]dec-(7Z)-ylidene]-ethylidene}-cyclo-hexane-1,3-diol] | 0.5 | 3 | – | – | – | –
7 | 3 | 0.4 | – | – | CC(C)(O)CCCC1CCC2(CCC/C(=C/C=C3C[C@@H](O)C[C@H](O)C3)C2)C1 (stereo in doubt) [(1R,3R)-5-{2-[(2S, 5R)-2-(4-hydroxy-4-methylpentyl)-spiro[4.5]dec-(7Z)-ylidene]-ethylidene}-cyclo-hexane-1,3-diol] | 0.9 | 8 | – | – | – | –
8 | – | – | – | – | C=C1/C(=C\C=C2/CCC[C@]3(C)[C@@H]([C@H](C)CCCC(C)(C)O)CC[C@@H]23)C[C@@H](O)C[C@@H]1O [1α,25(OH)2D3, 1α,25-dihydroxyvitamin D3] | 100 | – | 10.9 | 10.3 | 8.9 | 100
9 | 0 | 0.4 | – | – | CC(C)(O)CCC[C@H]1CC[C@]2(CCC/C(=C\C=C3C[C@@H](O)C[C@H](O)C3)C2)C1 [(1R,3R)-5-{2-[(2R,5S)-2-(4-Hydroxy-4-methyl-pentyl)-spiro[4.] [(1R,3R)-5-{(E)-(2R,5S))-2-[2-(4-hydroxy-4-methylpentyl)-spiro[4.5]dec-7-ylidene]-ethylidene}-cyclohexane-1,3-diol] | 4 | 9 | – | – | – | –
